Assay results reported in ChEMBL document CHEMBL1146829, “Acetylene-based analogues of thiolactomycin, active against Mycobacterium tuberculosis mtFabH fatty acid condensing enzyme” (Bioorg Med Chem Lett, 2004).

Assay: Inhibitory activity against recombinant Mycobacterium tuberculosis beta-ketoacyl-Acyl Carrier Protein synthase mtFabH condensing enzyme

| Structure (SMILES) | IC50 [µM] |
| --- | --- |
| CC1=C(O)C(C)(Cc2ccc(-c3ccc(COCc4ccccc4)cc3)cc2)SC1=O (centres undefined) | 17 |
| CC1=C(O)C(C)(CC#Cc2ccc(C#N)cc2)SC1=O (centres undefined) | 7 |
| COC(=O)c1ccc(C#CCC2(C)SC(O)=C(C)C2=O)cc1 (centres undefined) | 74 |
| CC(=O)c1ccc(C#CCC2(C)SC(O)=C(C)C2=O)cc1O (centres undefined) | 7 |
| CC1=C(O)C(C)(CC#Cc2ccc([N+](=O)[O-])cc2)SC1=O (centres undefined) | 34 |
| CC(=O)c1ccc(C#CCC2(C)SC(O)=C(C)C2=O)cc1 (centres undefined) | 4 |
| C=C/C(C)=C/[C@@]1(C)SC(=O)C(C)=C1O [THIOLACTOMYCIN] | 74.9 |
| CC1=C(O)C(C)(CC#Cc2ccccc2C#N)SC1=O (centres undefined) | 48 |
| C#CCC1(C)SC(=O)C(C)=C1O (centres undefined) | 100 |
